In publication PMC10287555, “Camonsertib in DNA damage response-deficient advanced solid tumors: phase 1 trial results” (Nature Medicine, 2023):

Assay: Treatment-related adverse events (TRAEs), TRESR
Type: in vivo, human
Description: Tolerability and safety of camonsertib was evaluated by assessment of AEs, TEAEs, serious adverse events (SAEs), DLTs, concomitant medications and procedures, physical examinations, vital sign measurements, clinical safety laboratory evaluations (hematology, chemistry and urinalysis), ECOG performance status scores and electrocardiograms.
All safety and efficacy endpoints were summarized with descriptive statistics. Safety data were summarized using the safety population, which consisted of all patients who received at least one dose of RP-3500. The DLT rate was based on the DLT-evaluable population, which included those patients in dose-escalation cohorts (M1a and M1b only) receiving ≥80% of planned doses of camonsertib, who completed all required safety evaluations and were observed through the end of cycle 1 or patients who experienced a DLT. Due to the different number of dose levels expected and the exploratory nature of the phase 1 study, anti-tumor activity parameters were primarily based on patients who received ≥1 dose of RP-3500 and had ≥1 post-baseline tumor assessment by RECIST 1.1 and/or GCIG CA-125 or PCWG3 PSA criteria, with an initial dose level of >100 mg d^−1 (dose level predicted to achieve efficacious exposure), as defined in the statistical analysis plan. Additional subgroups based on tumor types or genotypes of interest were based on this efficacy analysis set. […] Patients were, therefore, enrolled in the study and endpoints assessed regardless of sex, gender and race. No formal statistical tests were performed in this study. However, nominal P values (two-sided) were provided for the hypothesis-generating purpose of selected exploratory endpoints, without adjusting for multiplicity. A log-rank test was used in between-group comparisons for the time-to-event endpoints (PFS and DOT), and Fisher’s exact test was used in between-group comparisons for the binary endpoints (CBR, MR, etc.).

[1] = 3/4 schedule (n = 95), all grades
[2] = 5/2 schedule (n = 25), all grades

Q: With `C[C@@H]1COCCN1c1cc([C@]2(O)C[C@H]3CC[C@@H](C2)O3)c2cnn(-c3cc[nH]n3)c2n1` [camonsertib] as the compound, how does the “Patients who discontinued due to treatment-related grade 3 anemia” value (1/120, after four cycles) read?
A: 0.8%

Q: What about the “Anemia, all grades” value (3/4 schedule) of the same compound?
A: 64%

Q: What about the “Anemia, grade 3” value (3/4 schedule) of the same compound?
A: 26%

Q: And the “Fatigue TRAE, grade 3” value (3/4 schedule (n = 95))?
A: 2.1%

Q: What about the “Fatigue TRAE, overall” value (3/4 schedule (n = 95)) of the same compound?
A: 27.4%

Q: And the “Neutropenia TRAE, grade 3” value (3/4 schedule (n = 95))?
A: 10.5%

Q: And the “Neutropenia TRAE, grade 4” value (3/4 schedule (n = 95))?
A: 3.2%

Q: And the “Neutropenia TRAE, overall” value (3/4 schedule (n = 95))?
A: 26.3%

Q: And the “Thrombocytopenia TRAE, grade 3” value (3/4 schedule (n = 95))?
A: 6.3%

Q: What about the “Thrombocytopenia TRAE, grade 4” value (3/4 schedule (n = 95)) of the same compound?
A: 1.1%

Q: And the “Thrombocytopenia TRAE, overall” value (3/4 schedule (n = 95))?
A: 23.2%

Q: What about the “Any TRAE” value [1] of the same compound?
A: 82 (86.3) n (%)

Q: And the “TRAE: Anemia” value [1]?
A: 61 (64.2) n (%)

Q: And the “TRAE: Decreased appetite” value [1]?
A: 14 (14.7) n (%)

Q: What about the “TRAE: Diarrhea” value [1] of the same compound?
A: 13 (13.7) n (%)

Q: What about the “TRAE: Dysgeusia” value [1] of the same compound?
A: 5 (5.3) n (%)

Q: What about the “TRAE: Dyspnea” value [1] of the same compound?
A: 6 (6.3) n (%)

Q: What about the “TRAE: Fatigue” value [1] of the same compound?
A: 26 (27.4) n (%)

Q: What about the “TRAE: Nausea” value [1] of the same compound?
A: 23 (24.2) n (%)

Q: What about the “TRAE: Neutrophil count decreased/neutropenia” value [1] of the same compound?
A: 25 (26.3) n (%)

Q: What about the “TRAE: Platelet count decreased/thrombocytopenia” value [1] of the same compound?
A: 22 (23.2) n (%)

Q: And the “TRAE: Vomiting” value [1]?
A: 9 (9.5) n (%)

Q: What about the “TRAE: White blood cell count decreased” value [1] of the same compound?
A: 11 (11.6) n (%)

Q: And the “Any TRAE” value (3/4 schedule (n = 95), grade 3)?
A: 30 (31.6) n (%)

Q: What about the “TRAE: Anemia” value (3/4 schedule (n = 95), grade 3) of the same compound?
A: 25 (26.3) n (%)

Q: What about the “TRAE: Decreased appetite” value (3/4 schedule (n = 95), grade 3) of the same compound?
A: 0 n (%)

Q: What about the “TRAE: Diarrhea” value (3/4 schedule (n = 95), grade 3) of the same compound?
A: 0 n (%)

Q: What about the “TRAE: Dysgeusia” value (3/4 schedule (n = 95), grade 3) of the same compound?
A: 0 n (%)

Q: What about the “TRAE: Dyspnea” value (3/4 schedule (n = 95), grade 3) of the same compound?
A: 0 n (%)

Q: And the “TRAE: Fatigue” value (3/4 schedule (n = 95), grade 3)?
A: 2 (2.1) n (%)

Q: What about the “TRAE: Nausea” value (3/4 schedule (n = 95), grade 3) of the same compound?
A: 0 n (%)

Q: What about the “TRAE: Neutrophil count decreased/neutropenia” value (3/4 schedule (n = 95), grade 3) of the same compound?
A: 10 (10.5) n (%)

Q: And the “TRAE: Platelet count decreased/thrombocytopenia” value (3/4 schedule (n = 95), grade 3)?
A: 6 (6.3) n (%)

Q: And the “TRAE: Vomiting” value (3/4 schedule (n = 95), grade 3)?
A: 0 n (%)

Q: What about the “TRAE: White blood cell count decreased” value (3/4 schedule (n = 95), grade 3) of the same compound?
A: 4 (4.2) n (%)

Q: And the “Any TRAE” value (3/4 schedule (n = 95), grade 4)?
A: 4 (4.2) n (%)

Q: And the “TRAE: Anemia” value (3/4 schedule (n = 95), grade 4)?
A: 0 n (%)

Q: And the “TRAE: Decreased appetite” value (3/4 schedule (n = 95), grade 4)?
A: 0 n (%)

Q: And the “TRAE: Diarrhea” value (3/4 schedule (n = 95), grade 4)?
A: 0 n (%)

Q: And the “TRAE: Dysgeusia” value (3/4 schedule (n = 95), grade 4)?
A: 0 n (%)

Q: What about the “TRAE: Dyspnea” value (3/4 schedule (n = 95), grade 4) of the same compound?
A: 0 n (%)

Q: What about the “TRAE: Fatigue” value (3/4 schedule (n = 95), grade 4) of the same compound?
A: 0 n (%)

Q: What about the “TRAE: Nausea” value (3/4 schedule (n = 95), grade 4) of the same compound?
A: 0 n (%)

Q: And the “TRAE: Neutrophil count decreased/neutropenia” value (3/4 schedule (n = 95), grade 4)?
A: 3 (3.2) n (%)

Q: What about the “TRAE: Platelet count decreased/thrombocytopenia” value (3/4 schedule (n = 95), grade 4) of the same compound?
A: 1 (1.1) n (%)

Q: And the “TRAE: Vomiting” value (3/4 schedule (n = 95), grade 4)?
A: 0 n (%)

Q: And the “TRAE: White blood cell count decreased” value (3/4 schedule (n = 95), grade 4)?
A: 0 n (%)

Q: What about the “Nausea TRAE, overall” value (3/4 schedule (n = 95), all grade <3) of the same compound?
A: 24.2%

Q: And the “Anemia, all grades” value (5/2 schedule)?
A: 80%

Q: What about the “Anemia, grade 3” value (5/2 schedule) of the same compound?
A: 52%

Q: And the “Any TRAE” value [2]?
A: 22 (88.0) n (%)

Q: And the “TRAE: Anemia” value [2]?
A: 20 (80.0) n (%)

Q: And the “TRAE: Decreased appetite” value [2]?
A: 4 (16.0) n (%)

Q: And the “TRAE: Diarrhea” value [2]?
A: 0 n (%)

Q: And the “TRAE: Dysgeusia” value [2]?
A: 1 (4.0) n (%)

Q: And the “TRAE: Dyspnea” value [2]?
A: 5 (20.0) n (%)

Q: And the “TRAE: Fatigue” value [2]?
A: 7 (28.0) n (%)

Q: And the “TRAE: Nausea” value [2]?
A: 3 (12.0) n (%)

Q: What about the “TRAE: Neutrophil count decreased/neutropenia” value [2] of the same compound?
A: 6 (24.0) n (%)

Q: What about the “TRAE: Platelet count decreased/thrombocytopenia” value [2] of the same compound?
A: 7 (28.0) n (%)

Q: And the “TRAE: Vomiting” value [2]?
A: 3 (12.0) n (%)

Q: What about the “TRAE: White blood cell count decreased” value [2] of the same compound?
A: 1 (4.0) n (%)

Q: What about the “Any TRAE” value (5/2 schedule (n = 25), grade 3) of the same compound?
A: 14 (56.0) n (%)

Q: What about the “TRAE: Anemia” value (5/2 schedule (n = 25), grade 3) of the same compound?
A: 13 (52.0) n (%)

Q: What about the “TRAE: Decreased appetite” value (5/2 schedule (n = 25), grade 3) of the same compound?
A: 0 n (%)

Q: And the “TRAE: Diarrhea” value (5/2 schedule (n = 25), grade 3)?
A: 0 n (%)

Q: What about the “TRAE: Dysgeusia” value (5/2 schedule (n = 25), grade 3) of the same compound?
A: 0 n (%)

Q: What about the “TRAE: Dyspnea” value (5/2 schedule (n = 25), grade 3) of the same compound?
A: 0 n (%)

Q: What about the “TRAE: Fatigue” value (5/2 schedule (n = 25), grade 3) of the same compound?
A: 1 (4.0) n (%)

Q: And the “TRAE: Nausea” value (5/2 schedule (n = 25), grade 3)?
A: 0 n (%)

Q: And the “TRAE: Neutrophil count decreased/neutropenia” value (5/2 schedule (n = 25), grade 3)?
A: 3 (12.0) n (%)

Q: What about the “TRAE: Platelet count decreased/thrombocytopenia” value (5/2 schedule (n = 25), grade 3) of the same compound?
A: 2 (8.0) n (%)

Q: What about the “TRAE: Vomiting” value (5/2 schedule (n = 25), grade 3) of the same compound?
A: 0 n (%)

Q: What about the “TRAE: White blood cell count decreased” value (5/2 schedule (n = 25), grade 3) of the same compound?
A: 0 n (%)

Q: And the “Any TRAE” value (5/2 schedule (n = 25), grade 4)?
A: 1 (4.0) n (%)

Q: What about the “TRAE: Anemia” value (5/2 schedule (n = 25), grade 4) of the same compound?
A: 0 n (%)

Q: What about the “TRAE: Decreased appetite” value (5/2 schedule (n = 25), grade 4) of the same compound?
A: 0 n (%)

Q: And the “TRAE: Diarrhea” value (5/2 schedule (n = 25), grade 4)?
A: 0 n (%)

Q: What about the “TRAE: Dysgeusia” value (5/2 schedule (n = 25), grade 4) of the same compound?
A: 0 n (%)

Q: And the “TRAE: Dyspnea” value (5/2 schedule (n = 25), grade 4)?
A: 0 n (%)

Q: And the “TRAE: Fatigue” value (5/2 schedule (n = 25), grade 4)?
A: 0 n (%)

Q: And the “TRAE: Nausea” value (5/2 schedule (n = 25), grade 4)?
A: 0 n (%)

Q: What about the “TRAE: Neutrophil count decreased/neutropenia” value (5/2 schedule (n = 25), grade 4) of the same compound?
A: 1 (4.0) n (%)

Q: What about the “TRAE: Platelet count decreased/thrombocytopenia” value (5/2 schedule (n = 25), grade 4) of the same compound?
A: 1 (4.0) n (%)

Q: And the “TRAE: Vomiting” value (5/2 schedule (n = 25), grade 4)?
A: 0 n (%)

Q: And the “TRAE: White blood cell count decreased” value (5/2 schedule (n = 25), grade 4)?
A: 0 n (%)

Q: What about the Tolerability (120 patients) of the same compound?
A: well tolerated

Q: What about the “Anemia TRAE of any grade” value (all dose levels/schedules) of the same compound?
A: 67.5%

Q: And the “Anemia, grade 3 (most common drug-related toxicity)” value (all patients)?
A: 32%

Q: And the “Anemia, grade 4” value (both schedules)?
A: no grade 4 anemia was observed
